What is called Km is the concentration of substrate that gives half-maximal velocity. Usually IC50 stands for the concentration that inhibits the measured activity by half. Read a high IC50 as weaker potency in that assay.

Data set [1] has as its target T1, Solute carrier organic anion transporter family member 1A3 (Rattus norvegicus, UniProt P70502).
T1 sequence (P70502 whole entry): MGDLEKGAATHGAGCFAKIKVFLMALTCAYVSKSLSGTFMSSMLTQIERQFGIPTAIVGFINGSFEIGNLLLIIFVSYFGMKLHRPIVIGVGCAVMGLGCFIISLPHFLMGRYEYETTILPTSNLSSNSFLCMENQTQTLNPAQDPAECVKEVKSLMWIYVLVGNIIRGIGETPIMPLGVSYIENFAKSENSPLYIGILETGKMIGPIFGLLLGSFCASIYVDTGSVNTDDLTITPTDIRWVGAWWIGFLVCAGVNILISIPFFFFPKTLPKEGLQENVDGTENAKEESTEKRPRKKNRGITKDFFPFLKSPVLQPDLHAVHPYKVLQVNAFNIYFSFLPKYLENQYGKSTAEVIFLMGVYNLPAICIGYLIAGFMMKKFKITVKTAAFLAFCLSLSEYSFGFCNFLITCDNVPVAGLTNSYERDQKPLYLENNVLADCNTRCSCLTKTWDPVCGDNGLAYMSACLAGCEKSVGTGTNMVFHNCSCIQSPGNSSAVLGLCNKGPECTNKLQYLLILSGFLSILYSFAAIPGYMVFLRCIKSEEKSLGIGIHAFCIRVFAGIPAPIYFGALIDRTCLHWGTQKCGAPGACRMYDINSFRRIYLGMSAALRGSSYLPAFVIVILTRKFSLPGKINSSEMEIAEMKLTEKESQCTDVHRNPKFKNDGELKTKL
Nature of the data set: TP_TRANSPORTER: inhibition of Taurocholate uptake (Taurocholate: 0.25 uM, OTA: 100 uM) in OAT-K1-expressing MDCK cells. Type of data set: functional, cell-based. The settings on record: dog.

In data set [2] the target is T2, OAT-K2 (Solute carrier organic anion transporter family member 1A3) (Rattus norvegicus, UniProt P70502).
T2 sequence (P70502 whole entry): T1 sequence (P70502 whole entry)
In words: (§1) TP_TRANSPORTER: uptake in OAT-K2-expressing MDCK cells. The settings on record: dog. The data set is classed as functional, cell-based.

The target of data set [3] is T3, OAT-K1 (Solute carrier organic anion transporter family member 1A3) (Rattus norvegicus, UniProt P70502).
T3 sequence (P70502 whole entry): T1 sequence (P70502 whole entry)
Nature of the data set: (§2) TP_TRANSPORTER: uptake in OAT-K1-expressing MDCK cells. The data set is classed as functional, cell-based. The conditions noted are these: dog.

The target in data set [4] is T1, Solute carrier organic anion transporter family member 1A3. Nature of the data set: TP_TRANSPORTER: inhibition of Taurocholate uptake (Taurocholate: 0.25 uM, DHEA-3-acetate: 100 uM) in OAT-K1-expressing MDCK cells. The settings on record: dog. The data set is classed as functional, cell-based.
For data set [5] the target is unchanged. Nature of the data set: TP_TRANSPORTER: inhibition of MTX uptake (MTX: 0.1 uM, T4: 50 uM) in OAT-K2-expressing MDCK cells. The settings on record: dog. Type of data set: functional, cell-based.
Data set [6] shares this target. Nature of the data set: TP_TRANSPORTER: inhibition of MTX uptake (MTX: 0.1 uM, T3: 50 uM) in OAT-K2-expressing MDCK cells. Type of data set: functional, cell-based. The conditions noted are these: dog.
The target of data set [7] is T4, Solute carrier organic anion transporter family member 1A4 (Rattus norvegicus, UniProt O35913).
T4 sequence (O35913 whole entry): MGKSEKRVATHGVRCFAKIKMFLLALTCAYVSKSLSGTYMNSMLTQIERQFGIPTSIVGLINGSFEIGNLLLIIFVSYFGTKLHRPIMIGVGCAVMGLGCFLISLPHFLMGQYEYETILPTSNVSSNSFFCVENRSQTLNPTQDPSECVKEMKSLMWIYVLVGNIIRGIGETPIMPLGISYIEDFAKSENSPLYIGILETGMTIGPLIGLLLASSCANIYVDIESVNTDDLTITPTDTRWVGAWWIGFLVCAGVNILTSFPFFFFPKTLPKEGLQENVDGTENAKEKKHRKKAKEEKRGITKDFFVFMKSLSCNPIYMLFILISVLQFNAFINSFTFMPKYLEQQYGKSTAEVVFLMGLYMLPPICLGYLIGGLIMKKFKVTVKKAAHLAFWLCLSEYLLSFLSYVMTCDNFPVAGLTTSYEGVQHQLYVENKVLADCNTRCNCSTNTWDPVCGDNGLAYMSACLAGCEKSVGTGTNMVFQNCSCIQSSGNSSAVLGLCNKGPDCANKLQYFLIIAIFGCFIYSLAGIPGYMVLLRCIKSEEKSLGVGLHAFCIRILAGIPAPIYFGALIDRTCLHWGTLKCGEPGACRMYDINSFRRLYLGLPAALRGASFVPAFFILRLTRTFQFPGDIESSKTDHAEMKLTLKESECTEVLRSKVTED
Nature of the data set: TP_TRANSPORTER: inhibition of Digoxin uptake in Xenopus laevis oocytes.

Data set [8] has as its target T1, Solute carrier organic anion transporter family member 1A3. In words: TP_TRANSPORTER: inhibition of T3 uptake (T3: 0.43nM, MTX: 2500 uM) in OAT-K2-expressing MDCK cells. The data set is classed as functional, cell-based. The conditions noted are these: dog.
The target is the same in data set [9]. Nature of the data set: TP_TRANSPORTER: inhibition of T3 uptake (T3: 0.43nM, MTX: 2500 uM) in OAT-K1-expressing MDCK cells. Type of data set: functional, cell-based. The settings on record: dog.
The target is the same in data set [10]. In words: TP_TRANSPORTER: inhibition of Taurocholate uptake (Taurocholate: 0.25 uM, DHEAS: 100 uM) in OAT-K1-expressing MDCK cells. Type of data set: functional, cell-based. The conditions noted are these: dog.
For data set [11] the target is unchanged. In words: TP_TRANSPORTER: inhibition of Taurocholate uptake (Taurocholate: 0.25 uM, DHEA: 100 uM) in OAT-K1-expressing MDCK cells. Type of data set: functional, cell-based. The settings on record: dog.
Substrate in data set [12]: CN(Cc1cnc2nc(N)nc(N)c2n1)c1ccc(C(=O)N[C@@H](CCC(=O)O)C(=O)O)cc1
The data set is described as §1. Type of data set: functional, cell-based.

Substrate in data set [13]: C[C@]12CC[C@@H]3c4ccc(O)cc4CC[C@H]3[C@@H]1CC[C@@H]2O[C@@H]1O[C@H](C(=O)O)[C@@H](O)[C@H](O)[C@H]1O
Described as §1. The data set is classed as functional, cell-based.

Substrate in data set [14]: N[C@@H](Cc1cc(I)c(Oc2cc(I)c(O)c(I)c2)c(I)c1)C(=O)O
The description is as §1. Type of data set: functional, cell-based.

Substrate in data set [15]: N[C@@H](Cc1cc(I)c(Oc2ccc(O)c(I)c2)c(I)c1)C(=O)O
Described as §1. Type of data set: functional, cell-based.

Substrate in data set [16]: [H][C@@]12CC=C3C[C@@H](OS(=O)(=O)O)CC[C@]3(C)[C@@]1([H])CC[C@]1(C)C(=O)CC[C@@]21[H]
The description is as §1. Type of data set: functional, cell-based.

Substrate in data set [17]: C[C@]12CC[C@@H]3c4ccc(O)cc4CC[C@H]3[C@@H]1CC[C@@H]2O[C@@H]1O[C@H](C(=O)O)[C@@H](O)[C@H](O)[C@H]1O
Described as §2. Type of data set: functional, cell-based.

Substrate in data set [18]: N[C@@H](Cc1cc(I)c(Oc2cc(I)c(O)c(I)c2)c(I)c1)C(=O)O
Described as §2. The data set is classed as functional, cell-based.

Substrate in data set [19]: N[C@@H](Cc1cc(I)c(Oc2ccc(O)c(I)c2)c(I)c1)C(=O)O
The description is as §2. Type of data set: functional, cell-based.

Substrate in data set [20]: [H][C@@]12CC=C3C[C@@H](OS(=O)(=O)O)CC[C@]3(C)[C@@]1([H])CC[C@]1(C)C(=O)CC[C@@]21[H]
Described as §2. The data set is classed as functional, cell-based.

In the case of `C[C@@H]1Cc2c(Cl)cc(C(=O)N[C@@H](Cc3ccccc3)C(=O)O)c(O)c2C(=O)O1` [3R14S-OCHRATOXIN A], the Activity result in data set [1] is “inhibitor [(at a rough estimate) 55 % of control]”. In addition, the Michaelis-Menten constant (Km) in data set [2] was 16.6 µM; in [3], 5.6 µM.
With `CC(=O)O[C@H]1CC[C@@]2(C)C(=CC[C@@H]3[C@@H]2CC[C@]2(C)C(=O)CC[C@@H]32)C1` [DEHYDROEPIANDROSTERONE ACETATE], in data set [4], the Activity result is “inhibitor [(at a rough estimate) 30 % of control]”.
Turning to `N[C@@H](Cc1cc(I)c(Oc2cc(I)c(O)c(I)c2)c(I)c1)C(=O)O` [LEVOTHYROXINE], the Activity entry in data set [5] is “inhibitor [(at a rough estimate) 60 % of control]”.
As to `N[C@@H](Cc1cc(I)c(Oc2ccc(O)c(I)c2)c(I)c1)C(=O)O` [LIOTHYRONINE], in data set [6], the Activity result is “inhibitor [(at a rough estimate) 60 % of control]”. Moreover, the half-inhibitory concentration (IC50) in [7] came out at 50.4 µM.
Take `CN(Cc1cnc2nc(N)nc(N)c2n1)c1ccc(C(=O)N[C@@H](CCC(=O)O)C(=O)O)cc1` [METHOTREXATE]: the Activity entry in data set [8] and in data set [9] was “inhibitor [(at a rough estimate) 75 % of control]” in each case.
On to `C[C@]12CC[C@H](OS(=O)(=O)O)CC1=CC[C@@H]1[C@@H]2CC[C@]2(C)C(=O)CC[C@@H]12` [PRASTERONE SULFURIC ACID], for which the Activity entry in data set [10] was “inhibitor [(at a rough estimate) 30 % of control]”.
As for `C[C@]12CC[C@H](O)CC1=CC[C@@H]1[C@@H]2CC[C@]2(C)C(=O)CC[C@@H]12` [PRASTERONE], the Activity entry in data set [11] was “inhibitor [(at a rough estimate) 30 % of control]”.
`Cc1cn([C@H]2C[C@H](N=[N+]=[N-])[C@@H](CO)O2)c(=O)[nH]c1=O` [ZIDOVUDINE]: the Km in [2] came out at 76.3 µM; in [3], 64.3 µM.

B1: Solute carrier organic anion transporter family member 1A3 (Rattus norvegicus) (protein)
chain: T1 sequence (P70502 whole entry)
As to B1, the Km in data set [12] worked out at 1.8 µM; in data set [13], 44.9 µM; in data set [14], 12 µM; in data set [15], 24.8 µM; in data set [16] it was 7.6 µM; in data set [17], 35.3 µM. The results for the Km in data set [18], in [19] and in data set [20] were 20.2 µM, 43.8 µM and 8.5 µM, respectively.
